Measured values reported in patent US7989451B2, “Tricyclic 1,2,4-triazine oxides and compositions for therapeutic use in cancer treatments” (Auckland Uniservices Limited, priority 2005, dated 2011).
Read-outs that look alike come from different tables or passages of the source.

Legend:
[1] = tested on: human colon carcinoma HT29; assay: Proliferation assay (IC50) under aerobic and hypoxic conditions, HT29; format: cell-based; conditions: for IC50: Homo sapiens, 4 h drug exposure, sulforhodamine B; for HCR: hypoxic cytotoxicity ratio = IC50 aerobic/IC50 hypoxic
Protocol: (§1) Compounds representative of the invention were evaluated under both aerobic and hypoxic conditions in a proliferation assay (IC50), using two cell lines: human colon carcinoma HT29, and human cervical carcinoma SiHa (Table 1).
(§2) Drug exposures were performed in 96-well plates (Nunc) either using a 37 DC humidified incubator (20% O2, 5% CO2) or in the incubator compartment (37° C.) of an anaerobic chamber (Shell Lab) where palladium catalyst scrubbed gas (90% N2, 5% H2, 5% CO2) ensures severe anoxia (<0.001% O2). For each experiment, compounds were simultaneously tested under both oxic and hypoxic conditions and included TPZ as an internal control. An 8-methyl-5-nitroquinoline derivative, SN 24349, known to require very low oxygen concentrations for bioactivation (Siim et al., Br. J. Cancer 1994, 70, 596-603) was used to confirm that strict hypoxia was present during the experiment. […] Cell cultures were grown in αMEM (Gibco) containing 5% heat inactivated FCS and maintained in exponential growth phase. For each individual experiment an appropriate number of cells were seeded (HT29=1100; SiHa=1500) into wells in αMEM+10% FCS+10 mM added glucose+100 μM 2′-deoxycytidine (2′dCyd), and allowed to attach for 2-3 h. High glucose (final concentration 17 mM) and the presence of 2′-dCyd minimize hypoxia-induced cell cycle arrest. Cultures were then exposed to drugs, using 3-fold serial dilutions in duplicate, for a further 4 h. Subsequently cells were washed free of compound using complete media (without glucose/2′-dCyd) and allowed to grow for 5 (oxic) or 6 (anoxic) days. Plates were stained with sulforhodamine B as described previously (Wilson et al., J. Med. Chem. 1989, 32, 31-38) and IC50 values determined.
(§3) HCR=Hypoxic cytotoxicity ratio is defined as the ratio of IC50 values under aerobic and hypoxic conditions (IC50 aerobic/IC50 hypoxic).

[2] = tested on: human cervical carcinoma SiHa; assay: Proliferation assay (IC50) under aerobic and hypoxic conditions, SiHa; format: cell-based; conditions: for IC50: Homo sapiens, 4 h drug exposure, sulforhodamine B; for HCR: hypoxic cytotoxicity ratio = IC50 aerobic/IC50 hypoxic
Protocol: as §1, §2, §3

[3] = HT-29, hypoxic (anaerobic chamber, <0.001% O2), then 6 days growth, read-out: IC50 (μM) hypoxic
[4] = HT-29, oxic (20% O2), then 5 days growth, read-out: IC50 (μM) oxic
[5] = hypoxic (anaerobic chamber, <0.001% O2), then 6 days growth, read-out: IC50 (μM) hypoxic
[6] = oxic (20% O2), then 5 days growth, read-out: IC50 (μM) oxic

SMILES	IC50 [1, 3]	IC50 [1, 4]	HCR [1]	IC50 [2, 5]	IC50 [2, 6]	HCR [2]	melting point
COCCCN(C)CCNc1n[n+]([O-])c2cc3c(cc2[n+]1[O-])CCC3 [Compound 33, N^1-(1,4-Dioxido-7,8-dihydro-6H-indeno[5,6-e][1,2,4]triazin-3-yl)-N^2-(3-methoxypropyl)-N^2-methyl-1,2-ethanediamine]	6.3 ± 2.1 µM	315 ± 84 µM	52 ± 4	2 ± 1.1 µM	152 ± 38 µM	92 ± 30	129 to 131 °C
COC1CN(CCNc2n[n+]([O-])c3cc4c(cc3[n+]2[O-])CCC4)C1 [Compound 35, N-[2-(3-Methoxy-1-azetidinyl)ethyl]-7,8-dihydro-6H-indeno[5,6-e][1,2,4]triazin-3-amine 1,4-Dioxide]	3.4 ± 0.1 µM	165 ± 10 µM	49 ± 5	1.8 ± 0.2 µM	108 ± 8 µM	61 ± 10	152 °C (dec.)
[O-][n+]1nc(NCCN2CCCCC2)[n+]([O-])c2cc3c(cc21)CCC3 [Compound 37, N-[2-(1-Piperidinyl)ethyl]-7,8-dihydro-6H-indeno[5,6-e][1,2,4]triazin-3-amine 1,4-Dioxide]	5.8 ± 2.9 µM	186 ± 58 µM	49 ± 35	1.3 ± 0.4 µM	101 ± 25 µM	143	165 to 168 °C
CC1CCCC(C)N1CCNc1n[n+]([O-])c2cc3c(cc2[n+]1[O-])CCC3 (stereo not drawn) [Compound 39, N-[2-(2,6-Dimethyl-1-piperidinyl)ethyl]-7,8-dihydro-6H-indeno[5,6-e][1,2,4]triazin-3-amine 1,4-Dioxide]	2.7 ± 0.2 µM	117 ± 47 µM	42 ± 15	1.1 ± 0.1 µM	73 ± 14 µM	65 ± 13	170 to 172 °C
COC1CCN(CCNc2n[n+]([O-])c3cc4c(cc3[n+]2[O-])CCC4)CC1 [Compound 43, N-[2-(4-Methoxy-1-piperidinyl)ethyl]-7,8-dihydro-6H-indeno[5,6-e][1,2,4]triazin-3-amine 1,4-Dioxide]	3.5 ± 0.3 µM	187 ± 98 µM	56 ± 33	1.2 ± 0.1 µM	91 ± 3 µM	78 ± 11	148 to 151 °C
[O-][n+]1nc(NCCN2CCCCCC2)[n+]([O-])c2cc3c(cc21)CCC3 [Compound 47, N-[2-(1-Azepanyl)ethyl]-7,8-dihydro-6H-indeno[5,6-e][1,2,4]triazin-3-amine 1,4-Dioxide]	1.4 ± 0.1 µM	72 ± 2 µM	52 ± 1	0.71 ± 0.01 µM	67 ± 5 µM	95 ± 6	181 to 184 °C
[O-][n+]1nc(NCCCO)[n+]([O-])c2cc3c(cc21)CCC3 [Compound 51, 3-[(1,4-Dioxido-7,8-dihydro-6H-indeno[5,6-e][1,2,4]triazin-3-yl)amino]-1-propanol]	> 50 µM	1610 µM		20.5 ± 3.3 µM	455 ± 25 µM	22 ± 1	182 to 184 °C
COCCN(C)CCCNc1n[n+]([O-])c2cc3c(cc2[n+]1[O-])CCC3 [Compound 53, N^1-(1,4-Dioxido-7,8-dihydro-6H-indeno[5,6-e][1,2,4]triazin-3-yl)-N^3-(2-methoxyethyl)-N^3-methyl-1,3-propanediamine]	5.4 ± 2.8 µM	261 ± 90 µM	81 ± 60	2.6 ± 0.4 µM	142 ± 6 µM	55 ± 6	77 to 79 °C
COC1CN(CCCNc2n[n+]([O-])c3cc4c(cc3[n+]2[O-])CCC4)C1 [Compound 55, N-[3-(3-Methoxy-1-azetidinyl)propyl]-7,8-dihydro-6H-indeno[5,6-e][1,2,4]triazin-3-amine 1,4-Dioxide]	2.4 ± 0.3 µM	233 ± 19 µM	102 ± 22	1.4 ± 0.4 µM	99 ± 14 µM	83 ± 34	150 to 152 °C
COC1CCN(CCCNc2n[n+]([O-])c3cc4c(cc3[n+]2[O-])CCC4)CC1 [Compound 59, N-[3-(4-Methoxy-1-piperidinyl)propyl]-7,8-dihydro-6H-indeno[5,6-e][1,2,4]triazin-3-amine 1,4-Dioxide]	7.1 ± 0.8 µM	494 ± 36 µM	70 ± 5	2 ± 0.2 µM	114 ± 2 µM	57 ± 1	128 to 130 °C
